Measurements as given in patent US20100310471A1, “ANTIOXIDANT AND PARAMAGNETIC HEPARIN-NITROXIDE DERIVATIVES” (Johannes Gutenberg-Universität Mainz, priority 2007, published 2010).

Columns and labels:
[1] = known value; cited from earlier work
[2] = tested on: heparin-binding sites of the vascular wall (rat aorta); experiment: Binding to rat aortic rings, detected by EPR (X-band) after wash with Krebs; settings: for replacement of heparin-nitroxide from heparin-binding sites of rat aorta by dextran: 100 μM H—NR-2, 1 hr, 37° C., with 1 mM or 10 mM dextran (up to 100 molar excess)
Procedure: Therefore, the heparin-nitroxide derivative of the present invention is able to specifically bind with high affinity to specific sites in biological vessels.
FIG. 4. Spectra EPR, (A) 10 μM H—NR-1 solution; (B) rat aortic ring (3 mm long) pre-incubated with 10 μM H—NR-1 for 1 hour and then washed 3 times with Krebs buffer; (C) rat aortic ring (3 mm long) pre-incubated with 10 μM H—NR-1 in the presence of heparin (liquemin, 30 units/ml) for 1 hour and then washed 3 times with Krebs buffer; (D) 5 μM 4-hydroxy-TEMPO; (E) rat aortic ring (3 mm long) pre-incubated with 10 μM 4-hydroxy-TEMPO for 1 hour and then washed 3 times with Krebs buffer. EPR spectra were recorded at room temperature using an X-band radiospectrometer MS200 (Magnettech GmbH, Berlin). Instrument parameters were 10 mW microwave power, 0.1 mT amplitude modulation, 100 kHz modulation frequency, sweep field 5 mT and 60 s sweep time. Representative spectra of 3 experiments are shown.
FIG. 5. The binding of H—NR-1 to rat aorta as a function of time and concentration. Rat aortic rings (3 mm long) were incubated (37° C.) with 10 μM or 100 μM H—NR-1 either for 0.5 hr, 1 hr, 1.5 hr, 2 hr, 3 hr and then washed out with Krebs solution. To estimate the amount of H—NR-1 bound to tissue, aortic rings were placed in capillaries, and spectra EPR(X-band) were recorded.
FIG. 6. […] Rat aortic rings (3 mm long) with or without endothelium were incubated (37° C.) with 10 μM H—NR-1 for 1 hr and then washed out with Krebs solution. To estimate the amount of H—NR-1 bound to tissue, aortic rings were placed in capillaries and spectra EPR(X-band) were recorded at room temperature.
FIG. 12. […] Rat aortic rings (3 mm long) were incubated (37° C.) with 100 μM H—NR-2 for 1 hr and then washed out with Krebs solution. Rings were incubated with H—NR-2 along (A) or in the presence of 1 mM dextran (B), or in the presence of 10 mM dextran (C). To estimate the amount of H—NR-2 bound to tissue, aortic rings were placed in capillaries, and spectra EPR(X-band) were recorded.

[3] = EPR spectra of H—NRs in aqueous solution (line width); assay type: physicochemical; settings: 0.1 mM aqueous solutions, pH 7.4, room temperature, X-band
Procedure: FIG. 2. Spectra EPR of TEMPO and different H—NRs (0.1 mM aqueous solutions, pH 7.4). EPR spectra were recorded at room temperature using an X-band radiospectrometer MS200 (Magnettech GmbH, Berlin). Instrument parameters were 10 mW microwave power, 0.1 mT amplitude modulation, 100 kHz modulation frequency, sweep field 11 mT and 120 s sweep time.
The line widths of the EPR signals of all H—NRs were slightly broader in comparison to the EPR signal of TEMPOL, indicating slight decrease in the mobility of nitroxyl groups upon binding to heparin as well as spin-spin interactions between them. Thus, ΔH (in gauss) were 1.8, 2.1, 2.5, 2.0 and 2.5 for TEMPOL, H—NR-1, H—NR-2, H—NR-3 and H—NR-4, respectively. The line width the signal is critical for the in vivo EPR imaging. A narrower signal provides for better resolution, and is therefore preferred. As a result, the H—NR-3, in which nitroxide is bound to heparin via a linker, provides for a higher spectral mobility, and is thus preferred for EPR imaging.

| Compound | half-life in vivo [1] | binding to rat aorta (EPR signal in tissue after wash) ([2]; aortic ring pre-incubated with 10 μM for 1 hour, washed 3 times with Krebs buffer) | ΔH, line width of the EPR signal [3] | replacement of heparin-nitroxide from heparin-binding sites of rat aorta by dextran [2] | replacement of heparin-nitroxide from heparin-binding sites of rat aorta by dextran ([2]; listed as Dextran) |
| --- | --- | --- | --- | --- | --- |
| CC1(C)CC(O)CC(C)(C)N1[O] [TEMPOL, 4-hydroxy-2,2,6,6-tetramethylpiperidine-N-oxyl] | only a few minutes | did not result in the appearance of the EPR signal in tissue | 1.8 gauss | – | – |
| dextran | – | – | – | unable to replace heparin-nitroxide from the vascular tissue | unable to replace Heparin-nitroxide |
